The text below walks through data of ChEMBL document CHEMBL4251663, “Marine Invertebrate Natural Products that Target Microtubules” (J Nat Prod, 2018).

Structures are written as SMILES. In brackets after ≈: the same amount, converted by molar mass.

The target in one experiment is Tubulin. The experiment in a line: Inhibition of tubulin polymerization (unknown origin) pretreated for 15 mins followed by GTP addition by spectrophotometric method. It is filed as protein-complex assay, Homo sapiens.
The next experiment has as its system P388. Nature of the experiment: Cytotoxicity against mouse P388 cells. The class given is functional, cell-based.
Another experiment deals with A549. The experiment in a line: Cytotoxicity against human A549 cells. The class given is functional, cell-based.
The next experiment has as its system HT-29. The experiment in a line: Cytotoxicity against human HT-29 cells. The class given is functional, cell-based.
Experiment [1] can be described thus: Cytotoxicity against human MEL28 cells. It is filed as functional, cell-based. To be noted: SK-MEL-28.

As a reminder, the IC50 is the concentration that gives 50% inhibition. Regarding `COC1=CC(=O)N(C(=O)[C@@H](OC(=O)[C@@H]2CCCN2C(=O)[C@@H]2CCCN2C(=O)[C@H](C(C)C)N(C)C(=O)[C@@H](NC(=O)[C@H](C(C)C)N(C)C)C(C)C)C(C)C)[C@H]1Cc1ccccc1` [DOLASTATIN 15], at Tubulin, the IC50 was 23 µM.

Regarding `CC[C@H](C)[C@@H]([C@@H](CC(=O)N1CCC[C@H]1[C@H](OC)[C@@H](C)C(=O)N[C@@H](Cc1ccccc1)c1nccs1)OC)N(C)C(=O)[C@@H](NC(=O)[C@H](C(C)C)N(C)C)C(C)C` [DOLASTATIN-10], on Tubulin, the 50% inhibitory concentration (IC50) is 1.2 µM.

Turning to `C=C1C[C@@H]2C/C=C/C(=O)C/C(C)=C\C=C\C(=O)O[C@H]([C@H](O)NC(=O)/C=C\C=C\C)C/C(C)=C/[C@H](C1)O2` [ZAMPANOLIDE], the IC50 (in the experiment on P388; with A549; in the experiment with HT-29; in experiment [1]) was 1 to 5 ng/mL (≈ 2.02 to 10.1 nM) throughout.
